Laboratory results from patent publication US8933105B2, “Pyrrole compounds” (Takeda Pharmaceutical Company Limited, priority 2007, dated 2015).
Where a name gives a salt, the structure may show the parent alone.

What was measured:
[1] = tested on: Caspase-3/7; assay: Caspase-3/7 activity test (Caspase-Glo 3/7 Assay); type: cell-based, Human; conditions: HepG2, 30 μM, culture for one day, relative to maximum with Staurosporine (100%) and no test reagent (0%)
Procedure: (§1) Human liver cancer-derived cell line HepG2 (ATCC No. HB-8065) was passaged using Dulbecco's Modified Eagle medium (DMEM; Invitrogen) containing 10% fetal bovine serum (FBS; TRACE SCIENTIFIC LTD.), 1 mmol/L sodium pyruvate (Invitrogen), 2 mmol/L L-glutamine (Invitrogen), 50 IU/mL penicillin (Invitrogen) and 50 μg/mL streptomycin (Invitrogen) at 5% CO2, 37° C. The test reagent was prepared with DMSO to 10 mM, and further diluted with DMEM medium containing 0.5% FBS, 1 mmol/L sodium pyruvate, 2 mmol/L L-glutamine, 50 IU/mL penicillin and 50 μg/mL streptomycin to a final concentration of DMSO of 0.1%. HepG2 (2×10^4 cells/well) was cultured on a 96 well white plate (Costar) with the test reagent at 5% CO2, 37° C. After culture for one day, the intracellular ATP content was measured using ATPLite™ (PerkinElmer Life Sciences). The results are shown in Table 26 (n≧3, average value±SD) as a relative value (%) to control (without addition of drug) at 30 μM.
Caspase-3/7 Activity Test
The Caspase-3/7 activity in the cells cultured for one day by a method similar to that in Experimental Example 2 was measured using Caspase-Glo 3/7 Assay (Promega). The results are shown in Table 26 (n≧3, average value±SD) as relative activity (%) of each reagent based on the maximum value of Caspase-3/7 activity when exposed to Staurosporine (100%), and the activity without addition of a test reagent (0%).

[2] = tested on: HepG2; assay: ATP content test (intracellular ATP content, ATPLite); type: cell-based, Human; conditions: HepG2, 30 μM, culture for one day, relative value to control (without addition of drug)
Procedure: as §1

[3] = molecular target: T1, proton, potassium-adenosine triphosphatase (H+,K+-ATPase) (Sus scrofa, UniProt P19156); assay: Proton potassium-adenosine triphosphatase (H+,K+-ATPase) inhibitory activity test; type: biochemical; conditions: swine gastric microsomal fraction, pH 6.5, 37° C.
T1 construct: a gastric mucous membrane microsomal fraction was prepared from the stomach of swine; from tissue; host or cells: swine stomach, gastric mucous membrane microsomal fraction
T1 sequence (P19156 2-1034 limits assumed): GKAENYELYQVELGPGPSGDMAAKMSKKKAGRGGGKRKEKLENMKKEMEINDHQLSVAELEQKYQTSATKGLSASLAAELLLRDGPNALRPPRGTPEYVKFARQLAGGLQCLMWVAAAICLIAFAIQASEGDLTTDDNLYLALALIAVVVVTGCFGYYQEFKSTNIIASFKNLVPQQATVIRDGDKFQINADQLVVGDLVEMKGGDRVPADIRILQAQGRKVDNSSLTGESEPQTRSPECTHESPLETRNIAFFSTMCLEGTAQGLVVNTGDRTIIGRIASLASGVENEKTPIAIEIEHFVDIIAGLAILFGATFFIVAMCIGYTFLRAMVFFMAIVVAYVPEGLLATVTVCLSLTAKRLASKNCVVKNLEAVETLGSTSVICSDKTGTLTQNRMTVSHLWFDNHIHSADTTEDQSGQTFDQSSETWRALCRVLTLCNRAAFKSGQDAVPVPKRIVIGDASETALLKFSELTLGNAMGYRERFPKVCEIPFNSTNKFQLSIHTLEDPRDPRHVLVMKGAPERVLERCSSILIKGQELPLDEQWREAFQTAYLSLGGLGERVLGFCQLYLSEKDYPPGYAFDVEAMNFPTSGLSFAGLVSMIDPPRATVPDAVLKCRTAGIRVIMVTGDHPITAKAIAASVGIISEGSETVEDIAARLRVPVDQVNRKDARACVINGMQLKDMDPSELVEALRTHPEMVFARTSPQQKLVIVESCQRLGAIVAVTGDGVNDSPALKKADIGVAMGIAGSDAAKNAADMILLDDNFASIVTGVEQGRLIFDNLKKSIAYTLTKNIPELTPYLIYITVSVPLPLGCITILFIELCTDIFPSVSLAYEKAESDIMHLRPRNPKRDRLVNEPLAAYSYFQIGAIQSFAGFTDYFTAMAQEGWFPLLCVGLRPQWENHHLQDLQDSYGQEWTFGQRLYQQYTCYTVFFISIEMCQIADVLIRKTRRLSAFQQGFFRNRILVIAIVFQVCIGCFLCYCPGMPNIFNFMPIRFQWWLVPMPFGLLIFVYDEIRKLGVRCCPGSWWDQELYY
T1 sequence (P18434 whole entry partner): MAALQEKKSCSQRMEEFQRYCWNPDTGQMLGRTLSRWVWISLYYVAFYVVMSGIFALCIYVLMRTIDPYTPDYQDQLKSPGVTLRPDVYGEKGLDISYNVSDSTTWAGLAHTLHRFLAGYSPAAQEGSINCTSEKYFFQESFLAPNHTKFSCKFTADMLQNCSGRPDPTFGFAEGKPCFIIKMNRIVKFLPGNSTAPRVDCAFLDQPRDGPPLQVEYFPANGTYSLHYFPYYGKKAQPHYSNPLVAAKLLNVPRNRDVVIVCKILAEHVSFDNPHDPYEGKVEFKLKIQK
Procedure: Proton Potassium-Adenosine Triphosphatase (H^+,K^+-ATPase) Inhibitory Activity Test
According to the method [Biochim. Biophys. Acta, 728, 31 (1983)] of Wallmark et al., a gastric mucous membrane microsomal fraction was prepared from the stomach of swine. First, the stomach was removed, washed with tap water, immersed in 3 mol/L brine, and the surface of the mucous membrane was wiped with a paper towel. The gastric mucous membrane was detached, chopped, and homogenized in a 0.25 mol/L saccharose solution (pH 6.8) containing 1 mmol/L EDTA and 10 mmol/L tris-hydrochloric acid using polytron (Kinematica). The obtained homogenate was centrifuged at 20,000×g for 30 min and the supernatant was centrifuged at 100,000×g for 90 min. The precipitate was suspended in 0.25 mol/L saccharose solution, superimposed on a 0.25 mol/L saccharose solution containing 7.5% Ficoll, and centrifuged at 100,000×g for 5 hr. The fraction containing the interface between the both layers was recovered, and centrifugally washed with 0.25 mol/L saccharose solution.
The obtained microsomal fraction was used as a proton, potassium-adenosine triphosphatase standard product.
To 40 μL of a 50 mmol/L HEPES-tris buffer (5 mmol/L magnesium chloride, 10 mmol/L potassium chloride, 10 μmol/L valinomycin, pH=6.5) containing 2.5 μg/mL (based on the protein concentration) of the enzyme standard product was added a test compound (5 μL) dissolved in a 10% aqueous dimethyl sulfoxide solution, and the mixture was incubated at 37° C. for 30 min. The enzyme reaction was started by adding 5 μL of a 2 mmol/L adenosine triphosphate tris salt solution (50 mmol/L HEPES-tris buffer (5 mmol/L magnesium chloride, pH 6.5)). The enzyme reaction was carried out at 37° C. for 20 min, and 15 μL of a malachite green solution (0.12% malachite green solution in sulfuric acid (2.5 mol/L), 7.5% ammonium molybdate and 11% Tween 20 were mixed at a ratio of 100:25:2) was added to quench the reaction. After allowing to stand at room temperature for 15 min, the resulting reaction product of inorganic phosphorus with malachite green was calorimetrically determined at a wavelength of 610 nm. In addition, the amount of the inorganic phosphoric acid in the reaction solution free of potassium chloride was measured in the same manner, which was subtracted from the inorganic phosphoric acid amount in the presence of potassium chloride to determine the proton, potassium-adenosine triphosphatase activity. The inhibitory rate (%) was determined from the activity value of the control and the activity values of various concentrations of the test compound, and the 50% inhibitory concentration (IC50) of the proton, potassium-adenosine triphosphatase was determined.

Compound | Caspase-3/7 activity (%, 30 μM) [1] | ATP content (%, 30 μM) [2] | IC50 [3]
CNCc1cc(-c2cccnc2Cl)n(S(=O)(=O)c2ccccc2)c1.Cl [Example 15, 1-[5-(2-chloropyridin-3-yl)-1-(phenylsulfonyl)-1H-pyrrol-3-yl]-N-methylmethanamine hydrochloride] | −0.8% | 90.4% | 43 nM
CNCc1cn(S(=O)(=O)c2ccccc2)c(-c2cccnc2F)c1F [Example 30, 1-[4-fluoro-5-(2-fluoropyridin-3-yl)-1-(phenylsulfonyl)-1H-pyrrol-3-yl]-N-methylmethanamine 0.5 fumarate] | −0.6% | 97.3% | 26 nM
CNCc1cc(-c2cccnc2F)n(S(=O)(=O)c2ccco2)c1.O=C(O)/C=C/C(=O)O [Example 3, 1-[5-(2-fluoropyridin-3-yl)-1-(2-furylsulfonyl)-1H-pyrrol-3-yl]-N-methylmethanamine fumarate] | −0.5% | 91.4% | 59 nM
CNCc1cc(-c2cccnc2C#N)n(S(=O)(=O)c2ccccc2)c1.Cl [Example 16, 3-{4-[(methylamino)methyl]-1-(phenylsulfonyl)-1H-pyrrol-2-yl}pyridine-2-carbonitrile hydrochloride] | 0% | 97.1% | 120 nM
CNCc1cn(S(=O)(=O)c2ccc(CO)o2)c(-c2cccnc2F)c1F [Example 64, [5-({3-fluoro-2-(2-fluoropyridin-3-yl)-4-[(methylamino)methyl]-1H-pyrrol-1-yl}sulfonyl)-2-furyl]methanol 0.5 fumarate] | −0.1% | 102.2% | 190 nM
CNCc1cn(S(=O)(=O)c2ccc(CF)o2)c(-c2cccnc2F)c1F.O=C(O)/C=C/C(=O)O [Example 66, 1-[4-fluoro-1-{[5-(fluoromethyl)-2-furyl]sulfonyl}-5-(2-fluoropyridin-3-yl)-1H-pyrrol-3-yl]-N-methylmethanamine fumarate] | −0.2% | 94.8% | 140 nM
CNCc1cn(S(=O)(=O)c2cccnc2)c(-c2cccnc2Cl)c1F.O=C(O)/C=C/C(=O)O [Example 38, 1-[5-(2-chloropyridin-3-yl)-4-fluoro-1-(pyridin-3-ylsulfonyl)-1H-pyrrol-3-yl]-N-methylmethanamine fumarate] | −0.4% | 93.4% | 130 nM
CNCc1cc(-c2cccnc2Cl)n(S(=O)(=O)c2cccc(C#N)c2)c1.O=C(O)/C=C/C(=O)O [Example 54, 3-({2-(2-chloropyridin-3-yl)-4-[(methylamino)methyl]-1H-pyrrol-1-yl}sulfonyl)benzonitrile fumarate] | −0.4% | 96.8% | 65 nM
CNCc1cn(S(=O)(=O)c2cnn(C)c2)c(-c2cccnc2F)c1Cl.O=C(O)/C=C/C(=O)O [Example 58, 1-{4-chloro-5-(2-fluoropyridin-3-yl)-1-[(1-methyl-1H-pyrazol-4-yl)sulfonyl]-1H-pyrrol-3-yl}-N-methylmethanamine fumarate] | −1.9% | 98.0% | 300 nM
CNCc1cn(S(=O)(=O)c2ccccn2)c(-c2cccnc2F)c1F.Cl [Example 85, 1-[4-fluoro-5-(2-fluoropyridin-3-yl)-1-(pyridin-2-ylsulfonyl)-1H-pyrrol-3-yl]-N-methylmethanamine hydrochloride] | −0.6% | 102.0% | 98 nM
CNCc1cc(-c2cccnc2C#N)n(S(=O)(=O)c2ccccc2C#N)c1.Cl [Example 101, 3-{1-[(2-cyanophenyl)sulfonyl]-4-[(methylamino)methyl]-1H-pyrrol-2-yl}pyridine-2-carbonitrile hydrochloride] | −0.5% | 97.3% | 230 nM
CNCc1cc(-c2ccc(C)nc2F)n(S(=O)(=O)c2cccnc2)c1.O=C(O)/C=C/C(=O)O [Example 13, 1-[5-(2-fluoro-6-methylpyridin-3-yl)-1-(pyridin-3-ylsulfonyl)-1H-pyrrol-3-yl]-N-methylmethanamine fumarate] | 0.2% | 87.7% | 120 nM
CNCc1cn(S(=O)(=O)c2ccc(C#N)o2)c(-c2cccnc2F)c1F.O=C(O)/C=C/C(=O)O [Example 68, 5-({3-fluoro-2-(2-fluoropyridin-3-yl)-4-[(methylamino)methyl]-1H-pyrrol-1-yl}sulfonyl)-2-furonitrile fumarate] | 3.6% | 83.4% | 170 nM
CNCc1cc(-c2cccnc2F)n(S(=O)(=O)c2ccc(F)cc2)c1.O=C(O)/C=C/C(=O)O [Example 20, 1-{1-[(4-fluorophenyl)sulfonyl]-5-(2-fluoropyridin-3-yl)-1H-pyrrol-3-yl}-N-methylmethanamine fumarate] | −0.2% | 86.6% | 57 nM
CNCc1cn(S(=O)(=O)c2cccc(CO)c2)c(-c2cccnc2F)c1F [Example 48, [3-({3-fluoro-2-(2-fluoropyridin-3-yl)-4-[(methylamino)methyl]-1H-pyrrol-1-yl}sulfonyl)phenyl]methanol 0.5 fumarate] | −0.8% | 92.7% | 130 nM
CNCc1cn(S(=O)(=O)c2ccccc2)c(-c2cccnc2F)c1C.Cl [Example 26, 1-[5-(2-fluoropyridin-3-yl)-4-methyl-1-(phenylsulfonyl)-1H-pyrrol-3-yl]-N-methylmethanamine hydrochloride] | −0.2% | 85.2% | 110 nM
CNCc1cn(S(=O)(=O)c2cccnc2)c(-c2cccnc2F)c1F [Example 28, 1-[4-fluoro-5-(2-fluoropyridin-3-yl)-1-(pyridin-3-ylsulfonyl)-1H-pyrrol-3-yl]-N-methylmethanamine 0.5 fumarate] | – | – | 71 nM
